{"source": "patent US11753445B2", "about": "“Therapeutic peptides” (COHBAR, INC., priority 2016, dated 2023)", "test_system": "3T3-L1 Adipocytes", "test": "Free fatty acid levels in cultured mouse 3T3-L1 adipocytes, isoproterenol stimulated (Example 2)", "format": "cell-based", "conditions": "test peptides 25 μM; isoproterenol 1 nM", "procedure,_shortened": "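3T3-L1 cells differentiated 12–17 days into adipocytes, then exposed to test peptides at 25 μM final for 18–20 h, then 1 h, then 3 h with isoproterenol (1 nM) at 37 °C. Free fatty acids in the medium measured colorimetrically at 540 nm, corrected for untreated background and expressed relative to isoproterenol-only cells.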", "note": "Peptide text beside a SMILES is read from it."}
{"smiles": "CC[C@H](C)[C@@H]1NC(=O)[C@H](Cc2ccc(O)cc2)NC(=O)CNC(=O)[C@@H](NC(=O)[C@H](CCC(=O)O)NC(=O)[C@H](CCC(N)=O)NC(=O)[C@H](Cc2c[nH]c3ccccc23)NC(=O)[C@H](CCCNC(=N)N)NC(=O)[C@@H](N)CCSC)CSSC[C@@H](C(=O)N[C@@H](CCCNC(=N)N)C(=O)N[C@@H](CCCCN)C(=O)N[C@@H](CC(C)C)C(=O)N[C@@H](CCCNC(=N)N)C(=O)O)NC(=O)[C@H](Cc2ccc(O)cc2)NC(=O)[C@H](Cc2ccccc2)NC1=O", "note": "[compound 220] (HELM PEPTIDE1{M.R.W.Q.E.C.G.Y.I.F.Y.C.R.K.L.R}$PEPTIDE1,PEPTIDE1,6:R3-12:R3$$$V2.0)", "values": [{"measurement": "Free Fatty Acid Levels in 3T3-L1 Adipocytes Expressed as a Percent of Isoproterenol Control: Percent of Control Value", "result": 70.5, "unit": "%"}]}
{"smiles": "CC[C@H](C)[C@@H]1NC(=O)[C@H](Cc2ccc(O)cc2)NC(=O)CNC(=O)[C@@H](NC(=O)[C@H](CCC(=O)O)NC(=O)[C@H](CCC(N)=O)NC(=O)[C@H](Cc2c[nH]c3ccccc23)NC(=O)[C@H](CCCNC(=N)N)NC(=O)[C@@H](N)CCSC)CCC(=O)NCCCC[C@@H](C(=O)N[C@@H](CCCNC(=N)N)C(=O)N[C@@H](CCCCN)C(=O)N[C@@H](CC(C)C)C(=O)N[C@@H](CCCNC(=N)N)C(=O)O)NC(=O)[C@H](Cc2ccc(O)cc2)NC(=O)[C@H](Cc2ccccc2)NC1=O", "note": "[compound 221] (HELM PEPTIDE1{M.R.W.Q.E.E.G.Y.I.F.Y.K.R.K.L.R}$PEPTIDE1,PEPTIDE1,6:R3-12:R3$$$V2.0)", "values": [{"measurement": "Free Fatty Acid Levels in 3T3-L1 Adipocytes Expressed as a Percent of Isoproterenol Control: Percent of Control Value", "result": 25.5, "unit": "%"}]}
{"smiles": "CC[C@H](C)[C@@H]1NC(=O)[C@H](Cc2ccc(O)cc2)NC(=O)CNC(=O)[C@H](CCSC)NC(=O)[C@H](CCC(=O)O)NC(=O)[C@@H](NC(=O)[C@H](Cc2c[nH]c3ccccc23)NC(=O)[C@H](CCCNC(=N)N)NC(=O)[C@@H](N)CCSC)CCC(=O)NCCCC[C@@H](C(=O)N[C@@H](CCCNC(=N)N)C(=O)N[C@@H](CCCCN)C(=O)N[C@@H](CC(C)C)C(=O)N[C@@H](CCCNC(=N)N)C(=O)O)NC(=O)[C@H](Cc2ccc(O)cc2)NC(=O)[C@H](Cc2ccccc2)NC1=O", "note": "[compound 223] (HELM PEPTIDE1{M.R.W.E.E.M.G.Y.I.F.Y.K.R.K.L.R}$PEPTIDE1,PEPTIDE1,4:R3-12:R3$$$V2.0)", "values": [{"measurement": "Free Fatty Acid Levels in 3T3-L1 Adipocytes Expressed as a Percent of Isoproterenol Control: Percent of Control Value", "result": 64.6, "unit": "%"}]}
{"smiles": "CC[C@H](C)[C@@H]1NC(=O)[C@H](Cc2ccc(O)cc2)NC(=O)CNC(=O)[C@H](CCSC)NC(=O)[C@@H](NC(=O)[C@H](CCC(N)=O)NC(=O)[C@H](Cc2c[nH]c3ccccc23)NC(=O)[C@H](CCCNC(=N)N)NC(=O)[C@@H](N)CCSC)CCC(=O)NCCCC[C@@H](C(=O)N[C@@H](CCCNC(=N)N)C(=O)N[C@@H](CCCCN)C(=O)N[C@@H](CC(C)C)C(=O)N[C@@H](CCCNC(=N)N)C(=O)O)NC(=O)[C@H](Cc2ccc(O)cc2)NC(=O)[C@H](Cc2ccccc2)NC1=O", "note": "[compound 224] (HELM PEPTIDE1{M.R.W.Q.E.M.G.Y.I.F.Y.K.R.K.L.R}$PEPTIDE1,PEPTIDE1,5:R3-12:R3$$$V2.0)", "values": [{"measurement": "Free Fatty Acid Levels in 3T3-L1 Adipocytes Expressed as a Percent of Isoproterenol Control: Percent of Control Value", "result": 56.2, "unit": "%"}]}
{"smiles": "CC[C@H](C)[C@@H]1NC(=O)[C@H](Cc2ccc(O)cc2)NC(=O)CNC(=O)[C@@H](NC(=O)[C@H](CCC(=O)O)NC(=O)[C@H](CCC(N)=O)NC(=O)[C@H](Cc2c[nH]c3ccccc23)NC(=O)[C@H](CCCNC(=N)N)NC(=O)[C@H](CCSC)NC(C)=O)CSSC[C@@H](C(=O)N[C@@H](CCCNC(=N)N)C(=O)N[C@@H](CCCCN)C(=O)N[C@@H](CC(C)C)C(=O)N[C@@H](CCCNC(=N)N)C(N)=O)NC(=O)[C@H](Cc2ccc(O)cc2)NC(=O)[C@H](Cc2ccccc2)NC1=O", "note": "[compound 225] (HELM PEPTIDE1{[ac].M.R.W.Q.E.C.G.Y.I.F.Y.C.R.K.L.R.[am]}$PEPTIDE1,PEPTIDE1,7:R3-13:R3$$$V2.0)", "values": [{"measurement": "Free Fatty Acid Levels in 3T3-L1 Adipocytes Expressed as a Percent of Isoproterenol Control: Percent of Control Value", "result": 97.0, "unit": "%"}]}
{"smiles": "CC[C@H](C)[C@@H]1NC(=O)[C@H](Cc2ccc(O)cc2)NC(=O)CNC(=O)[C@@H](NC(=O)[C@H](CCC(=O)O)NC(=O)[C@H](CCC(N)=O)NC(=O)[C@H](Cc2c[nH]c3ccccc23)NC(=O)[C@H](CCCNC(=N)N)NC(=O)[C@H](CCSC)NC(C)=O)CCC(=O)NCCCC[C@@H](C(=O)N[C@@H](CCCNC(=N)N)C(=O)N[C@@H](CCCCN)C(=O)N[C@@H](CC(C)C)C(=O)N[C@@H](CCCNC(=N)N)C(N)=O)NC(=O)[C@H](Cc2ccc(O)cc2)NC(=O)[C@H](Cc2ccccc2)NC1=O", "note": "[compound 226] (HELM PEPTIDE1{[ac].M.R.W.Q.E.E.G.Y.I.F.Y.K.R.K.L.R.[am]}$PEPTIDE1,PEPTIDE1,7:R3-13:R3$$$V2.0)", "values": [{"measurement": "Free Fatty Acid Levels in 3T3-L1 Adipocytes Expressed as a Percent of Isoproterenol Control: Percent of Control Value", "result": 79.8, "unit": "%"}]}
{"smiles": "CC[C@H](C)[C@@H]1NC(=O)[C@H](Cc2ccc(O)cc2)NC(=O)CNC(=O)[C@H](CCSC)NC(=O)[C@@H](NC(=O)[C@H](CCC(N)=O)NC(=O)[C@H](Cc2c[nH]c3ccccc23)NC(=O)[C@H](CCCNC(=N)N)NC(=O)[C@H](CCSC)NC(C)=O)CCC(=O)NCCCC[C@@H](C(=O)N[C@@H](CC(C)C)C(=O)N[C@@H](CCCNC(=N)N)C(N)=O)NC(=O)[C@H](CCCNC(=N)N)NC(=O)[C@@H]2CCCN2C(=O)[C@H](Cc2ccc(O)cc2)NC(=O)[C@H](Cc2ccccc2)NC1=O", "note": "[compound 227] (HELM PEPTIDE1{[ac].M.R.W.Q.E.M.G.Y.I.F.Y.P.R.K.L.R.[am]}$PEPTIDE1,PEPTIDE1,6:R3-15:R3$$$V2.0)", "values": [{"measurement": "Free Fatty Acid Levels in 3T3-L1 Adipocytes Expressed as a Percent of Isoproterenol Control: Percent of Control Value", "result": 24.5, "unit": "%"}]}
{"smiles": "CC[C@H](C)[C@@H]1NC(=O)[C@H](Cc2ccc(O)cc2)NC(=O)CNC(=O)[C@H](CCSC)NC(=O)[C@H](CCC(=O)O)NC(=O)[C@@H](NC(=O)[C@H](Cc2c[nH]c3ccccc23)NC(=O)[C@H](CCCNC(=N)N)NC(=O)[C@H](CCSC)NC(C)=O)CCC(=O)NCCCC[C@@H](C(=O)N[C@@H](CCCNC(=N)N)C(=O)N[C@@H](CCCCN)C(=O)N[C@@H](CC(C)C)C(=O)N[C@@H](CCCNC(=N)N)C(N)=O)NC(=O)[C@H](Cc2ccc(O)cc2)NC(=O)[C@H](Cc2ccccc2)NC1=O", "note": "[compound 228] (HELM PEPTIDE1{[ac].M.R.W.E.E.M.G.Y.I.F.Y.K.R.K.L.R.[am]}$PEPTIDE1,PEPTIDE1,5:R3-13:R3$$$V2.0)", "values": [{"measurement": "Free Fatty Acid Levels in 3T3-L1 Adipocytes Expressed as a Percent of Isoproterenol Control: Percent of Control Value", "result": 69.9, "unit": "%"}]}
{"smiles": "CC[C@H](C)[C@H](NC(=O)[C@H](Cc1ccc(O)cc1)NC(=O)CNC(=O)[C@H](CCC(=O)O)NC(=O)[C@H](CCC(=O)O)NC(=O)[C@H](CCC(N)=O)NC(=O)[C@H](Cc1c[nH]c2ccccc12)NC(=O)[C@H](CCCNC(=N)N)NC(=O)[C@@H](C)N)C(=O)N[C@@H](Cc1ccccc1)C(=O)N[C@@H](Cc1ccc(O)cc1)C(=O)N1CCC[C@H]1C(=O)N[C@@H](CCCNC(=N)N)C(=O)N[C@@H](CCCCN)C(=O)N[C@@H](CC(C)C)C(=O)N[C@@H](C)C(=O)O", "note": "[compound 230] (HELM PEPTIDE1{[dA].R.W.Q.E.E.G.Y.I.F.Y.P.R.K.L.A}$$$$V2.0)", "values": [{"measurement": "Free Fatty Acid Levels in 3T3-L1 Adipocytes Expressed as a Percent of Isoproterenol Control: Percent of Control Value", "result": 94.5, "unit": "%"}]}
{"smiles": "CC[C@H](C)[C@H](NC(=O)[C@H](Cc1ccc(O)cc1)NC(=O)CNC(=O)[C@H](CCC(=O)O)NC(=O)[C@H](CCC(=O)O)NC(=O)[C@H](CCC(N)=O)NC(=O)[C@H](Cc1c[nH]c2ccccc12)NC(=O)[C@H](CCCNC(=N)N)NC(=O)[C@@H](C)N)C(=O)N[C@@H](Cc1ccccc1)C(=O)N[C@@H](Cc1ccc(O)cc1)C(=O)N1CCC[C@H]1C(=O)N[C@@H](CCCNC(=N)N)C(=O)N[C@@H](CCCCN)C(=O)N[C@@H](CC(C)C)C(=O)N[C@H](C)C(=O)O", "note": "[compound 231] (HELM PEPTIDE1{[dA].R.W.Q.E.E.G.Y.I.F.Y.P.R.K.L.[dA]}$$$$V2.0)", "values": [{"measurement": "Free Fatty Acid Levels in 3T3-L1 Adipocytes Expressed as a Percent of Isoproterenol Control: Percent of Control Value", "result": 61.6, "unit": "%"}]}
